Experimental data reported in patent US20240317755A1, “HETEROCYCLIC COMPOUND, AND INTERMEDIATE THEREOF, PREPARATION METHOD THEREFOR AND USE THEREOF” (WUHAN LL SCIENCE AND TECHNOLOGY DEVELOPMENT CO., LTD., priority 2021, published 2024).
Like-named read-outs stand apart in the source and are kept apart here.

Legend:
TRPC5 channel = TRPC5 channel (Homo sapiens (Human), UniProt Q9UL62); assay: TRPC5 calcium flux assay (Fluo-4, FLIPR) in TRPC5-HEK 293 cells; assay type: cell-based; conditions: for IC50: 0.3 nM Englerin A
Protocol: TRPC5 is a type of non-selective cation channel with permeability to calcium ions. […] Fluo-4 AM fluorescence dye was used to indirectly reflect the effect of the compound on TRPC5 channel by detecting intracellular Ca^2+ in TRPC5-HEK 293 cells.
• Revival solution: 100% high glucose DMEM • Selection medium: high glucose DMEM+10% FBS+1% P/S+1% HEPES+Blasticidin (5 μg/mL)+Hygromycine (50 μg/mL) • Induction medium: high glucose DMEM+10% FBS+1% P/S+1% HEPES+Doxycycline (1 μg/mL)
(§1) 14 hours before the real-time fluorescence experiment, cells were washed with PBS and digested with trypsin-EDTA. Cells were diluted to 200,000 cells/mL with induction medium and seeded onto a 96-well black wall bottom transparent plate coated with poly-D-lysine (PDL) (stock solution of 10 mg/mL, final concentration of 10 μg/mL) at 100 μL/well, i.e., 20,000 cells/well.
500 mL of external solution for detecting TRPC5 calcium signals: 4.0908 g of NaCl, 0.1864 g of KCl, 0.111 g of CaCl2, 0.0476 g of MgCl2, 0.9 g of glucose, 1.1915 g of HEPES (2-[4-(2-hydroxyethyl)piperazin-1-yl]ethanesulfonic acid).
Calcium fluorescent dye: an external solution for detecting TRPC5 calcium signals containing Fluo-4 with a final concentration of 4 μM (containing 0.5% BSA)
Positive inhibitor concentration: 100 nM
The dose-effect diagram was used to calculate AUC (area under the curve of the curve formed by the calcium flux signal), and the data and the log of the compound concentration were collected. The IC50 value was calculated using log[Inhibitor] vs. response Variable slope.
TRPC5 is a type of non-selective cation channel with permeability to calcium ions. […] Fluo-4 AM fluorescence dye was used to indirectly reflect the effect of the compound on TRPC5 channel by detecting intracellular […] in TRPC5-HEK 293 cells.
1. Cell culture 1.1 Revival of TRPC5-HEK 293 cells • Revival solution: 100% high glucose DMEM • Selection medium: high glucose DMEM+10% FBS+1% P/S+1% HEPES+Blasticidin (5 μg/mL)+Hygromycine (50 μg/mL) • Induction medium: high glucose DMEM+10% FBS+1% P/S+1% HEPES+Doxycycline (1 μg/mL)
as §1, with “trypsin-EDTA (TE).” for “trypsin-EDTA.”

[1] = Liver microsome half-life assay, monkey; assay type: in vitro ADME; conditions: liver microsomes, 1 mg/mL liver microsomal protein, 37° C., read-out: Liver microsome T½ (min) Monkey
Protocol: (§2) The in vitro metabolic stability of the compounds of the present disclosure was determined using warm incubation method of liver microsomes in various species. A proper amount of test compound was added to the liver microsomal reaction system (1 mg/mL liver microsomal protein, 25 U/mL glucose-6-phosphate dehydrogenase, 1 mM NADP, 6 mM D-glucose 6-phosphate, 5 mM MgCl2), and the reaction was started by warm incubation in a water bath at 37° C., then 100 μL of the reaction mixture at each time point was added to a centrifuge tube containing 400 μL of internal standard working solution precooled at 0° C. (containing a solution of 200 ng/mL dexamethasone, diclofenac, tolbutamide, and labetalol in acetonitrile), then the reaction was terminated, centrifuged at 4° C. and 10,000 g for 10 min, and the supernatant was taken into LC-MS for analysis and detection to obtain in vitro metabolic half-lives of the test compounds in liver microsomes of various species.

[2] = Liver microsome half-life assay, beagle dog; assay type: in vitro ADME; conditions: liver microsomes, 1 mg/mL liver microsomal protein, 37° C., read-out: Liver microsome T½ (min) Beagle dog
Protocol: as §2

[3] = Liver microsome half-life assay, human; assay type: in vitro ADME; conditions: for half-life: human, liver microsomes, 1 mg/mL liver microsomal protein, 37° C., read-out: Liver microsome T½ (min) Human; for metabolic stability in liver microsomes: compared with compounds C001 and C002, statement on Table 12, species not specified
Protocol: as §2

[4] = Liver microsome half-life assay, mouse; assay type: in vitro ADME; conditions: liver microsomes, 1 mg/mL liver microsomal protein, 37° C., read-out: Liver microsome T½ (min) Mouse
Protocol: as §2

[5] = Liver microsome half-life assay, rat; assay type: in vitro ADME; conditions: liver microsomes, 1 mg/mL liver microsomal protein, 37° C., read-out: Liver microsome T½ (min) Rat
Protocol: as §2

[6] = Pharmacokinetic study in mice in vivo (gavage and tail vein injection); conditions: mouse, plasma; for AUC(0-t) / Cmax: dose 1 mg/kg; for bioavailability: 1 mg/kg, p.o. vs i.v.
Description: […] Mouse plasma was collected at a specific time point after administration, and the concentration of the compound in plasma was detected by LC-MS/MS (AB SCIEX Qtrap4500). PK parameters of each compound (WinNonlin V5.2, Pharsight) were statistically analyzed and calculated to reflect the pharmacokinetic properties of the compounds of the present disclosure in mice in vivo.

[7] = Table 11, read-out: TRPC5 inhibitory activity, IC50

Chain of TRPC5 channel (Q9UL62 whole entry): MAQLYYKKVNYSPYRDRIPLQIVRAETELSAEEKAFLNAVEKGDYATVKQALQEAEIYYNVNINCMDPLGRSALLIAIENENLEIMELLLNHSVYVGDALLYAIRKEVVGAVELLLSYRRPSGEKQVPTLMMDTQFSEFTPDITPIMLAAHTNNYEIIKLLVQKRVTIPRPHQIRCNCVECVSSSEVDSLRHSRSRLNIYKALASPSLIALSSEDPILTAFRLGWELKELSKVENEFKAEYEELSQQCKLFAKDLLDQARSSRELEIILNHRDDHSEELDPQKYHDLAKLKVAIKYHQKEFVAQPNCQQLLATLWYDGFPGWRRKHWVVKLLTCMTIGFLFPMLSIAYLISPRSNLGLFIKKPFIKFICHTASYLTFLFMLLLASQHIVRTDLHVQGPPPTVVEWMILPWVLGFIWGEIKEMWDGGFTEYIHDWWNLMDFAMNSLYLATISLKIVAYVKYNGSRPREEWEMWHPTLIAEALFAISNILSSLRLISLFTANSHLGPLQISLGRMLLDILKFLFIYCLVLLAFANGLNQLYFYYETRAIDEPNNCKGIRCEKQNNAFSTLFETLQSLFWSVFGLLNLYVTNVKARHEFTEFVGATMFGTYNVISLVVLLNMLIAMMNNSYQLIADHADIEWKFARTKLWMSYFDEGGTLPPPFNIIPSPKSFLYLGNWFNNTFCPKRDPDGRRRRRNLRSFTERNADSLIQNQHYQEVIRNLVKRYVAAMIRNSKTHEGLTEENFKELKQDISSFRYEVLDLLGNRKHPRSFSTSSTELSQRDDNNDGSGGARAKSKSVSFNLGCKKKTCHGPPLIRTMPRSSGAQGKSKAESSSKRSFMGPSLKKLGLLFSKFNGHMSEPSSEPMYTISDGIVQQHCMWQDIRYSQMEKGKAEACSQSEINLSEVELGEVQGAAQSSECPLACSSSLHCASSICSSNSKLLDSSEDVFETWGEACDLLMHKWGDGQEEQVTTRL

| half-life [3] [min] | half-life [4] [min] | half-life [5] [min] | AUC(0-t) ([6]; iv) [ng·h/mL] | Cmax ([6]; iv) [ng/mL] | bioavailability ([6]; po) [%] | AUC(0-t) ([6]; po) [ng·h/mL] | Cmax ([6]; po) [ng/mL] | IC50 (TRPC5 channel; [7]) [nM] | SMILES | also measured |
| --- | --- | --- | --- | --- | --- | --- | --- | --- | --- | --- |
|  |  |  |  |  |  |  |  |  | O=C(c1ccc(F)cc1C(F)(F)F)c1cnc2n1CCN(c1cnn(COP(=O)(O)O)c(=O)c1Cl)C2 [Compound 1, (5-chloro-4-(3-(4-fluoro-2-(trifluoromethyl)benzoyl)-5,6-dihydroimidazo[1,2-a]pyrazin-7(8H)-yl)-6-oxopyridazin-1(6H)-yl)methyl dihydrogen phosphate] | inhibitory activity against TRPC5 channels (TRPC5 channel): no inhibitory activity; IC50 (TRPC5 channel; Table 1, read-out: TRPC5 inhibitory activity, IC50): > 10000 nM |
| 54 | 60 | 5 |  |  |  |  |  |  | O=c1[nH]ncc(N2CCc3c(ncn3Cc3ccccc3C(F)(F)F)C2)c1Cl [Compound C001, reference compound] | half-life [1]: 38 min; half-life [2]: 15 min |
| 90 | 115 | 34 |  |  |  |  |  |  | O=c1[nH]ncc(N2CCc3c(ncn3Cc3ccc(F)cc3C(F)(F)F)C2)c1Cl [Compound C002, reference compound] | half-life [1]: 15 min; half-life [2]: 102 min |
| 173 | 154 | 20 | 225 | 225 | 80.6 | 84.3 | 84.3 | 10.8 | O=c1[nH]ncc(N2CCn3c(Cc4ccccc4C(F)(F)F)cnc3C2)c1Cl [Compound L001, 4-chloro-5-(3-(2-(trifluoromethyl)benzyl)-5,6-dihydroimidazo[1,2-a]pyrazin-7(8H)-yl)pyridazin-3(2H)-one] | metabolic stability in liver microsomes [3]: significantly improved |
| 262 | 188 |  | 1450 | 833 | 43.2 | 625 | 248 | 6.52 | O=c1[nH]ncc(N2CCn3c(Cc4ccc(F)cc4C(F)(F)F)cnc3C2)c1Cl [Compound L002, 4-chloro-5-(3-(4-fluoro-2-(trifluoromethyl)benzyl)-5,6-dihydroimidazo[1,2-a]pyrazin-7(8H)-yl)pyridazin-3(2H)-one] | metabolic stability in liver microsomes [3]: significantly improved |
|  |  |  |  |  |  |  |  | 7.37 | O=c1[nH]ncc(N2CCn3c(Cc4ccc(F)cc4C(F)F)cnc3C2)c1Cl [Compound L007] |  |
|  |  |  |  |  |  |  |  | 39.4 | O=c1[nH]ncc(N2CCn3c(Cc4ccc(F)cc4Cl)cnc3C2)c1Cl [Compound L009] |  |
| 148 | 131 |  |  |  |  |  |  | 14.6 | O=c1[nH]ncc(N2CCn3c(Cc4cc(F)ccc4C(F)(F)F)cnc3C2)c1Cl [Compound L013, 4-chloro-5-(3-(5-fluoro-2-(trifluoromethyl)benzyl)-5,6-dihydroimidazo[1,2-a]pyrazin-7(8H)-yl)pyridazin-3(2H)-one] |  |
| 7590 | 167 |  | 663 | 762 | 161 | 1070 | 301 | 18.2 | N#Cc1ccc(Cc2cnc3n2CCN(c2cn[nH]c(=O)c2Cl)C3)c(C(F)(F)F)c1 [Compound L014, 4-((7-(5-chloro-6-oxo-1,6-dihydropyridazin-4-yl)-5,6,7,8-tetrahydroimidazo[1,2-a]pyrazin-3-yl)methyl)-3-(trifluoromethyl)benzonitrile] |  |
|  |  |  |  |  |  |  |  | 24 | N#Cc1ccc(C(=O)c2cnc3n2CCN(c2cn[nH]c(=O)c2Cl)C3)c(C(F)(F)F)c1 [Compound L019, 4-(7-(5-chloro-6-oxo-1,6-dihydropyridazin-4-yl)-5,6,7,8-tetrahydroimidazo[1,2-a]pyrazine-3-carbonyl)-3-(trifluoromethyl)benzonitrile] |  |
